Data taken from ChEMBL document CHEMBL1201862, “PubChem BioAssay data set” (2004).
Calls of active or inactive are those of the source.

Experiments:
[1] = biological target: Heat shock protein HSP 90-alpha (Homo sapiens, UniProt P07900); type: functional, organism-based
INS1 = assay: beta cell apoptosis inhibitors, cytokine rescue, dose response, luminescence, retest (AID 449756); type: functional, cell-based; settings: Rattus norvegicus;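 also: cell death triggered by IL-1 beta plus TNF-alpha plus IFN-gamma mixture; protective hits raise ATP signal compared with cytokine alone wells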
[2] = biological target: Voltage-gated N-type calcium channel alpha-1B subunit/Amyloid beta A4 precursor protein-binding family A member 1 (Homo sapiens, UniProt Q00975+Q02410); type: protein assay
[3] = biological target: T1, Ubiquitin-conjugating enzyme E2 N (Homo sapiens, UniProt P61088); type: functional
T1 sequence (P61088 whole entry): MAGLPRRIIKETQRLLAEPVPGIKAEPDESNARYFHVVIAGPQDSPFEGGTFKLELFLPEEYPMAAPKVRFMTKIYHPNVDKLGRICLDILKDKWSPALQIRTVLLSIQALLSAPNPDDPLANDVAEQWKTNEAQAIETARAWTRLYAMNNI

[4] = biological target: Eukaryotic translation initiation factor 4E (Mus musculus, UniProt P63073); assay: eIF4E–eIF4G protein interaction inhibitors, dose response, biochemical, TR-FRET (AID 855); type: functional;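 also: potency for disrupting eIF4E binding to eIF4GI seen as loss of FRET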
Troponin, cardiac muscle = Troponin, cardiac muscle (Homo sapiens, UniProt P19429+P45379+P63316); assay: inhibitors of cardiac thin filament calcium sensitivity, dose response, biochemical, fluorescence, cardiac regulated thin filaments, triplicate IC50 (AID 504742); type: protein-complex assay
[5] = biological target: Glyceraldehyde-3-phosphate dehydrogenase (Homo sapiens, UniProt P04406)
[6] = biological target: Heat shock 70 kDa protein 1A (Homo sapiens, UniProt P0DMV8); assay: Hsp70 inhibitors, SAR follow-up, biochemical, fluorescence polarization (AID 1072)
[7] = biological target: T2, Tyrosine-protein phosphatase non-receptor type 7 (Homo sapiens, UniProt P35236); type: functional
T2 sequence (P35236 whole entry): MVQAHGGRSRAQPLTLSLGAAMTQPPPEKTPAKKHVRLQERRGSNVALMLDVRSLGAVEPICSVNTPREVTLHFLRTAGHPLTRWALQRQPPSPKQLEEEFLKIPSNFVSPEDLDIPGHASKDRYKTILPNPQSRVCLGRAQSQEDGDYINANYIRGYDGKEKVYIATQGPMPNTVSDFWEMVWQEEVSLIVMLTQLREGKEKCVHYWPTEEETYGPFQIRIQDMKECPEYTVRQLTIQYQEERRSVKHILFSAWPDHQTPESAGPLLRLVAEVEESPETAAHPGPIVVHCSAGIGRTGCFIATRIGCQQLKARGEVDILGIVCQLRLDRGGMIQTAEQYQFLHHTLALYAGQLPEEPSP

[8] = biological target: cAMP-dependent protein kinase catalytic subunit alpha (Homo sapiens, UniProt P17612); type: functional
[9] = biological target: Macrophage-stimulating protein receptor (Homo sapiens, UniProt Q04912); assay: Navigating the Kinome. Panel member name: MST1R; type: functional
[10] = biological target: Fibroblast growth factor receptor 1 (Homo sapiens, UniProt P11362); type: functional
[11] = biological target: Serine/threonine-protein kinase TAO1 (Homo sapiens, UniProt Q7L7X3); type: functional
[12] = biological target: BDNF/NT-3 growth factors receptor (Homo sapiens, UniProt Q16620); type: functional;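 also: NTRK2 measured as one member of a broad kinome-wide kinase profiling panel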
[13] = biological target: Macrophage colony-stimulating factor 1 receptor (Homo sapiens, UniProt P07333); type: functional;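 also: value comes from the Navigating the Kinome screening panel, CSF1R member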
Macrophage colony-stimulating factor 1 receptor, sequence (P07333 whole entry): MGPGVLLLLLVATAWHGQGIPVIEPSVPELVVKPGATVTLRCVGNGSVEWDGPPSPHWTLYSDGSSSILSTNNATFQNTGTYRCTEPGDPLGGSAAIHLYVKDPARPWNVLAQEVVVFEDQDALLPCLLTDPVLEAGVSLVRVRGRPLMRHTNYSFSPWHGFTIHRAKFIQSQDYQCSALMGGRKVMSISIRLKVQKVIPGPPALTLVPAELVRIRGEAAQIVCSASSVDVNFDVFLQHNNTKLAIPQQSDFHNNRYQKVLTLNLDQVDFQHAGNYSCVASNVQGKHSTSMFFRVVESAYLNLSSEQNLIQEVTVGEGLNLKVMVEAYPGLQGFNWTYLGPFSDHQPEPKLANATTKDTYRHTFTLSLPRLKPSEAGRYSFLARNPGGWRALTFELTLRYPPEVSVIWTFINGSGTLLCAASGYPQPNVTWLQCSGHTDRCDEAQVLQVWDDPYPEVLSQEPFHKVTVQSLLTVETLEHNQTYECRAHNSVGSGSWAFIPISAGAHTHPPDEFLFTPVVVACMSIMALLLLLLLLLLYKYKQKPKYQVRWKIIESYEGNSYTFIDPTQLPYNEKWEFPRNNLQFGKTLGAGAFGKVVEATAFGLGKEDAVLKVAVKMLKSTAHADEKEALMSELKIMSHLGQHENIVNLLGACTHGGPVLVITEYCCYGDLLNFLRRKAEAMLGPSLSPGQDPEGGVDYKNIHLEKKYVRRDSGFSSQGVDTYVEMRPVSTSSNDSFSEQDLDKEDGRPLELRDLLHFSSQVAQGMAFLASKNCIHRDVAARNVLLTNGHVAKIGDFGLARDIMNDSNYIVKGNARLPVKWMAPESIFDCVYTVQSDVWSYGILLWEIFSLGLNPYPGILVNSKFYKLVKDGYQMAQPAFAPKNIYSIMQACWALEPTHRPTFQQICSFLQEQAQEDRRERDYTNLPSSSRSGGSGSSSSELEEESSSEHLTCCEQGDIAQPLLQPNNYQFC

[14] = biological target: 5'-AMP-activated protein kinase catalytic subunit alpha-1 (Homo sapiens, UniProt Q13131); type: functional
5'-AMP-activated protein kinase catalytic subunit alpha-1, sequence (Q13131 whole entry): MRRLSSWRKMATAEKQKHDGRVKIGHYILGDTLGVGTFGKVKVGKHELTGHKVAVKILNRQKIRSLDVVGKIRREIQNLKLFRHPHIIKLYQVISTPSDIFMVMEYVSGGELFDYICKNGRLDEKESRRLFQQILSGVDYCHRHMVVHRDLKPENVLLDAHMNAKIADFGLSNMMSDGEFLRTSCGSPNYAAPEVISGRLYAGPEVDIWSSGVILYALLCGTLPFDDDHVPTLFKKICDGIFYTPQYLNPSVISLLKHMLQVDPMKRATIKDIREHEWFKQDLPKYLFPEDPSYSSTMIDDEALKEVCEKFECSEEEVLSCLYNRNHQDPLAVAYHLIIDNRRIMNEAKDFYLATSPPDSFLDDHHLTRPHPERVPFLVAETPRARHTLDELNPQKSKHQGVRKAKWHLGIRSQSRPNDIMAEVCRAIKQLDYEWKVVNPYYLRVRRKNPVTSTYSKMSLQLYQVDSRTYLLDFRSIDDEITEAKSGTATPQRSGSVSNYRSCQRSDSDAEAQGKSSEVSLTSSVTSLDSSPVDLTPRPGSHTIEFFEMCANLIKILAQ

[15] = biological target: Dual specificity protein kinase CLK2 (Homo sapiens, UniProt P49760); type: functional
Dual specificity protein kinase CLK2, sequence (P49760 whole entry): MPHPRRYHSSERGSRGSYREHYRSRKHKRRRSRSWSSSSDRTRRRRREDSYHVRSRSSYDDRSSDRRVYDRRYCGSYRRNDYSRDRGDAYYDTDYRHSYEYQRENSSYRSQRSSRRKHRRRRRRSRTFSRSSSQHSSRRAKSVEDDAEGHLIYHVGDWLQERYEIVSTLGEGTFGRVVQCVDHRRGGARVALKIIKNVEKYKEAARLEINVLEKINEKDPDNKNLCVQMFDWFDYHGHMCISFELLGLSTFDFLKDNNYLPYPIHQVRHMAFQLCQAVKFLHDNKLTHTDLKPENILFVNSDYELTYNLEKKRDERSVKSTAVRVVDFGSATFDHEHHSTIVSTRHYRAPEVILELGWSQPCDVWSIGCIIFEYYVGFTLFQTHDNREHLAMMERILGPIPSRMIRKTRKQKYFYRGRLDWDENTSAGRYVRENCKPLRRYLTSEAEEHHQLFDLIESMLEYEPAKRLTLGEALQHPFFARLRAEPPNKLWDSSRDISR

[16] = biological target: Vascular endothelial growth factor receptor 2 (Homo sapiens, UniProt P35968); type: functional
Vascular endothelial growth factor receptor 2, sequence (P35968 whole entry): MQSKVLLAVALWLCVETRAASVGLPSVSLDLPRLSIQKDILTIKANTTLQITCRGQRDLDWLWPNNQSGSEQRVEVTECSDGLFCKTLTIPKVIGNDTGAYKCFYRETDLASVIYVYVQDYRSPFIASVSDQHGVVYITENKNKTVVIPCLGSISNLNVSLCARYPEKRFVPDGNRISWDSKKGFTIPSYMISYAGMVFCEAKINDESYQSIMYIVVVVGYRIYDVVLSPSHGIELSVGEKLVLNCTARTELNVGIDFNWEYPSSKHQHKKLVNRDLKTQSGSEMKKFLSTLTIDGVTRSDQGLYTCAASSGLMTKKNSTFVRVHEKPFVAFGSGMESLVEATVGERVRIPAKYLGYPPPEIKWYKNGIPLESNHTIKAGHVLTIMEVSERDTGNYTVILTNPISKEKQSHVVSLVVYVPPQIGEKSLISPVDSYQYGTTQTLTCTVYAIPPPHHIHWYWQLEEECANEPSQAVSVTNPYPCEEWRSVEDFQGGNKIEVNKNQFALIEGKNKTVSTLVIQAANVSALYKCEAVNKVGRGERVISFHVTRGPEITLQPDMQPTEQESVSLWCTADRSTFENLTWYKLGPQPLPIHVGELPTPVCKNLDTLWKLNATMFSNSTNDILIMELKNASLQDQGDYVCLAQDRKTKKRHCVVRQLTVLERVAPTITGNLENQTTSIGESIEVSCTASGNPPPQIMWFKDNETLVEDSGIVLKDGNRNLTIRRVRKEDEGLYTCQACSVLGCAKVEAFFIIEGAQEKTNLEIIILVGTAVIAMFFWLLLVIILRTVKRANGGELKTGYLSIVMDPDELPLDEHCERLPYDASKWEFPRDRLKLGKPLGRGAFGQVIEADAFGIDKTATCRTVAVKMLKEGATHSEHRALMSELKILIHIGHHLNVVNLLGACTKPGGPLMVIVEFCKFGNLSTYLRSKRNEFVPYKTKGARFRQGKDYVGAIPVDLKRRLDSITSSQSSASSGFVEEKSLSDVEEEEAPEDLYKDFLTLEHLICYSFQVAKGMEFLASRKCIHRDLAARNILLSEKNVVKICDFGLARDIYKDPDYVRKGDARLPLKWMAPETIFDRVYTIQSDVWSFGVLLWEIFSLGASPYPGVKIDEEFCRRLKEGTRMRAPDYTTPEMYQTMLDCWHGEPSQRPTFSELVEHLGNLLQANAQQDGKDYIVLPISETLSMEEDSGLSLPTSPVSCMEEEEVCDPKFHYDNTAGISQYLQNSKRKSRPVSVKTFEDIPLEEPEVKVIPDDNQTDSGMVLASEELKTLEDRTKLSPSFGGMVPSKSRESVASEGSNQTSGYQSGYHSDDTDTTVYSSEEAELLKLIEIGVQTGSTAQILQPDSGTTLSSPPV

[17] = biological target: Cyclin-dependent kinase 9 (Homo sapiens, UniProt P50750); type: functional;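 also: value from the CDK9 entry of a kinome-spanning kinase panel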
Cyclin-dependent kinase 9, sequence (P50750 whole entry): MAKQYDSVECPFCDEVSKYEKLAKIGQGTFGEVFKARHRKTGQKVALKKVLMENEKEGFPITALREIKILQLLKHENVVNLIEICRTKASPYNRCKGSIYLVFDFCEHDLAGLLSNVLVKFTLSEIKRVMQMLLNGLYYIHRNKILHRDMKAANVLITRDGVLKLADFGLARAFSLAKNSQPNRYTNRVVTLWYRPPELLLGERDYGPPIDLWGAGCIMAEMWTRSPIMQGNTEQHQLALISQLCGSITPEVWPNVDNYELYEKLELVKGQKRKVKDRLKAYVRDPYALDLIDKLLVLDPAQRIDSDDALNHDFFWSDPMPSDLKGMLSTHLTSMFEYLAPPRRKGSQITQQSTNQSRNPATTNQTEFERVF

[18] = biological target: cAMP-dependent protein kinase catalytic subunit PRKX (Homo sapiens, UniProt P51817); type: functional
[19] = biological target: Calcium/calmodulin-dependent protein kinase type II subunit alpha (Homo sapiens, UniProt Q9UQM7); assay: Navigating the Kinome. Panel member name: CAMK2A; type: functional
[20] = biological target: Tyrosine-protein kinase ABL1 (Homo sapiens, UniProt P00519); type: functional
Tyrosine-protein kinase ABL1, sequence (P00519 whole entry): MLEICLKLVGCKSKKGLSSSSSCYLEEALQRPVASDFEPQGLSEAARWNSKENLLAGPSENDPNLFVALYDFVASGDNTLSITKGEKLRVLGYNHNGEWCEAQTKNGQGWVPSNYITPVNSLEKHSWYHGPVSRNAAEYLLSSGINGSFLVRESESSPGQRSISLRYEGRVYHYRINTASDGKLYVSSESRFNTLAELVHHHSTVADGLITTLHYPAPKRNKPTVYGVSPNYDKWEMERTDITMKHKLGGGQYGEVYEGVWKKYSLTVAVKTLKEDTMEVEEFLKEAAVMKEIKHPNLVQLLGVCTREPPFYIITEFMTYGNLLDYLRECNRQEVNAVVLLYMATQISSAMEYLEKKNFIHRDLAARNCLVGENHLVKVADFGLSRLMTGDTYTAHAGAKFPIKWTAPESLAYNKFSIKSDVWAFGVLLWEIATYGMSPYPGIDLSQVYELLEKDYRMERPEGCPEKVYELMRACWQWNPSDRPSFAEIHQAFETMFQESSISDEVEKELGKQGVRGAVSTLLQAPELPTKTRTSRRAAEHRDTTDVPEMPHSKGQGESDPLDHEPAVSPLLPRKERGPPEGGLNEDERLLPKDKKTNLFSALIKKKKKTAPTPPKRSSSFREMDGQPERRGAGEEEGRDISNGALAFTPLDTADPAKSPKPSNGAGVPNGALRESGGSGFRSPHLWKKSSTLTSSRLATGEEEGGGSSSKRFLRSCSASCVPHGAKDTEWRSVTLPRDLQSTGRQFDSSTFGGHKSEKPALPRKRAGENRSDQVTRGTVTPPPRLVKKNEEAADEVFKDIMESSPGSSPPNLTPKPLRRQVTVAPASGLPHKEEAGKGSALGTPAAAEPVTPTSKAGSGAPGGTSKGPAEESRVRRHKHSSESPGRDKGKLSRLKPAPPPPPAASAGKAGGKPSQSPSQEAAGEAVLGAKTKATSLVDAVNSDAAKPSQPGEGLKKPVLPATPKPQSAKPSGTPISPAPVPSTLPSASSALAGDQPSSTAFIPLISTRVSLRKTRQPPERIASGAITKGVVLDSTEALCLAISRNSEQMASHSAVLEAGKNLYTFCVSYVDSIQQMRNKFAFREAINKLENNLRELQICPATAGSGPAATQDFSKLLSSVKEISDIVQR

[21] = biological target: Platelet-derived growth factor receptor beta (Homo sapiens, UniProt P09619); type: functional;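 also: value comes from a kinome panel, with PDGFRB tested as one panel member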
[22] = biological target: C-C chemokine receptor type 6 (Homo sapiens, UniProt P51684); assay: CCR6 receptor antagonists, dose response, cell-based, luminescent beta-arrestin readout (AID 504728); type: functional
[23] = AlphaScreen signal interference compounds, dose response, artefact control for ARNT-TACC3 interaction inhibitor project, biochemical, luminescence, cherry-pick (AID 651705); type: functional;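 also: AlphaScreen bead proximity signal that flags compounds interfering with the detection technology; potency reflects signal decrease which marks the compound as an assay artifact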
[24] = biological target: Mitogen-activated protein kinase kinase kinase kinase 5 (Homo sapiens, UniProt Q9Y4K4); type: functional;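 also: measured as one member of a kinome-spanning kinase panel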
[25] = biological target: Interleukin-1 receptor-associated kinase 4 (Homo sapiens, UniProt Q9NWZ3); type: functional
[26] = biological target: Protein kinase C iota type (Homo sapiens, UniProt P41743); type: functional;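 also: measured within a kinome-wide kinase panel, PRKCI as panel member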
[27] = biological target: Mitogen-activated protein kinase 13 (Homo sapiens, UniProt O15264); type: functional
[28] = biological target: Calcium/calmodulin-dependent protein kinase type 1 (Homo sapiens, UniProt Q14012); type: functional
[29] = biological target: RAC-gamma serine/threonine-protein kinase (Homo sapiens, UniProt Q9Y243); type: functional
[30] = biological target: Protein kinase C delta type (Homo sapiens, UniProt Q05655); type: functional
[31] = biological target: MAP/microtubule affinity-regulating kinase 4 (Homo sapiens, UniProt Q96L34); assay: Navigating the Kinome. Panel member name: MARK4; type: functional
Ephrin type-A receptor 2 = Ephrin type-A receptor 2 (Homo sapiens, UniProt P29317); type: functional;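 also: EPHA2 tested as one member of a kinome-wide kinase panel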
[32] = biological target: Mitogen-activated protein kinase kinase kinase 10 (Homo sapiens, UniProt Q02779); assay: Navigating the Kinome. Panel member name: MAP3K10; type: functional
[33] = biological target: Tyrosine-protein kinase Fer (Homo sapiens, UniProt P16591); type: functional;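 also: FER tested as one member of a kinome panel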

## O=C1/C(=C\c2cccc(O)c2O)SC(=S)N1Cc1ccccc1
[1]
  AC50: 13.4 µM (active)

## CC(C)(C)c1cc[n+](C2=C([N-]S(=O)(=O)c3cccs3)C(=O)c3ccccc3C2=O)cc1
INS1
  AC50: 2.04 µM (active)

## COc1cccc2c1NC(C(=O)O)C1CC=CC21 (stereo not given)
[2]
  IC50: 13.2 µM (active)
[3]
  IC50: > 20 µM (inactive)
[4]
  IC50: 12.8 µM (active)
Troponin, cardiac muscle
  IC50: 27.7 µM (inactive)
[5]
  IC50: 88.9 µM (active)
[6]
  IC50: 6.26 µM (active)
[7]
  IC50: 11.3 µM (active)

## COc1c(-c2nc3ccccc3[nH]2)c(O)cc2oc(C)cc(=O)c12
[8]
  Ki: 0.501 µM (active)
[9]
  Ki: 1.58 µM (active)
[10]
  Ki: 0.501 µM (active)
[11]
  Ki: 3.98 µM (active)
[12]
  Ki: 3.16 µM (active)
[13]
  Ki: 2 µM (active)
[14]
  Ki: 0.794 µM (active)
[15]
  Ki: > 3.98 µM (inactive)
[16]
  Ki: 2.51 µM (active)
[17]
  Ki: 0.158 µM (active)
[18]
  Ki: > 3.16 µM (inactive)
[19]
  Ki: 1 µM (active)
[20]
  Ki: 0.794 µM (active)

## COC(=O)c1c(N)nc2ccccn12
[8]
  Ki: 10 µM (active)
[21]
  Ki: > 79.4 µM (inactive)
[11]
  Ki: 100 µM (active)
[13]
  Ki: 79.4 µM (active)
[15]
  Ki: 63.1 µM (active)
[16]
  Ki: 25.1 µM (active)
[17]
  Ki: 39.8 µM (active)
[20]
  Ki: 100 µM (active)

## CCc1ccc(S(=O)(=O)/N=C2\C=C(Nc3ccc(O)cc3)C(=O)c3ccccc32)cc1
[22]
  IC50: > 66.6 µM (inactive)
INS1
  AC50: 0.981 µM (active)

## Cc1cc([N+](=O)[O-])cc(/C=N\NC(=O)C2COc3ccccc3O2)c1O (stereo not given)
[23]
  AC50: 93.6 µM (active)

## Cc1ccc(F)c(NC(=O)Nc2ccc(-c3cccc4[nH]nc(N)c34)cc2)c1 [LINIFANIB]
[24]
  Ki: 0.316 µM (active)
[25]
  Ki: 2.51 µM (active)
[26]
  Ki: > 5.01 µM (inactive)
[12]
  Ki: 0.631 µM (active)
[27]
  Ki: 2.51 µM (active)
[28]
  Ki: 6.31 µM (active)
[29]
  Ki: > 10 µM (inactive)
[30]
  Ki: > 7.94 µM (inactive)
[31]
  Ki: > 5.01 µM (inactive)
Ephrin type-A receptor 2
  Ki: 2.51 µM (active)
[32]
  Ki: > 3.16 µM (inactive)
[33]
  Ki: 0.501 µM (active)
